Data on three compounds can be found in BindingDB's records for patent US10556914 (ABBVIE INC.; ABBVIE DEUTSCHLAND GMBH & CO. KG, 2020).

Gamma-aminobutyric acid type B receptor subunit 1/2, sequence (Q9Z0U4 whole entry): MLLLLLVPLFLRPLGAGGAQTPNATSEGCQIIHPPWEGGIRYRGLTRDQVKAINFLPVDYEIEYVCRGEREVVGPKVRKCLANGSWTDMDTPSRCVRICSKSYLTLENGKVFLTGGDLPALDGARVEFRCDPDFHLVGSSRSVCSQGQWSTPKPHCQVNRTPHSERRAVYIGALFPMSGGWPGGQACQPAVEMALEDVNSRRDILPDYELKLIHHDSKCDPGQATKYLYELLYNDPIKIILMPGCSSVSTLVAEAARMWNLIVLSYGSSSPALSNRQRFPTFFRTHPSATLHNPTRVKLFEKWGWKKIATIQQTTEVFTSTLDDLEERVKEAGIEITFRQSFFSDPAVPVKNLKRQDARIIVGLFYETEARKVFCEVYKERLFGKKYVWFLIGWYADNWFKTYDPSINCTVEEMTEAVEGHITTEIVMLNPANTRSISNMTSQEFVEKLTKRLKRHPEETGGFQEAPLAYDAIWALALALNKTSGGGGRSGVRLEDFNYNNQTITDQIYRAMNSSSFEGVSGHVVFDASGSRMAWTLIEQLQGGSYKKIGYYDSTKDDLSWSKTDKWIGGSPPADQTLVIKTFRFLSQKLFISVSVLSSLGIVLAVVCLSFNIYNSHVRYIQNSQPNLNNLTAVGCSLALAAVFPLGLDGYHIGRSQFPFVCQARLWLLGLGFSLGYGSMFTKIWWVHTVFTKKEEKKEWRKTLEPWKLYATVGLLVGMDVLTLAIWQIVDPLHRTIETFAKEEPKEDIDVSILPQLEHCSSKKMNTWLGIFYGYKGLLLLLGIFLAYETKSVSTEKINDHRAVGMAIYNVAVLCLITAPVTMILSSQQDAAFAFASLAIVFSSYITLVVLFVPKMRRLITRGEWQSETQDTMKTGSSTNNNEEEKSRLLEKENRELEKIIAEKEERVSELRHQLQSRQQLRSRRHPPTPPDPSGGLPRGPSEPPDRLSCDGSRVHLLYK
Gamma-aminobutyric acid type B receptor subunit 1/2, sequence (O88871 whole entry): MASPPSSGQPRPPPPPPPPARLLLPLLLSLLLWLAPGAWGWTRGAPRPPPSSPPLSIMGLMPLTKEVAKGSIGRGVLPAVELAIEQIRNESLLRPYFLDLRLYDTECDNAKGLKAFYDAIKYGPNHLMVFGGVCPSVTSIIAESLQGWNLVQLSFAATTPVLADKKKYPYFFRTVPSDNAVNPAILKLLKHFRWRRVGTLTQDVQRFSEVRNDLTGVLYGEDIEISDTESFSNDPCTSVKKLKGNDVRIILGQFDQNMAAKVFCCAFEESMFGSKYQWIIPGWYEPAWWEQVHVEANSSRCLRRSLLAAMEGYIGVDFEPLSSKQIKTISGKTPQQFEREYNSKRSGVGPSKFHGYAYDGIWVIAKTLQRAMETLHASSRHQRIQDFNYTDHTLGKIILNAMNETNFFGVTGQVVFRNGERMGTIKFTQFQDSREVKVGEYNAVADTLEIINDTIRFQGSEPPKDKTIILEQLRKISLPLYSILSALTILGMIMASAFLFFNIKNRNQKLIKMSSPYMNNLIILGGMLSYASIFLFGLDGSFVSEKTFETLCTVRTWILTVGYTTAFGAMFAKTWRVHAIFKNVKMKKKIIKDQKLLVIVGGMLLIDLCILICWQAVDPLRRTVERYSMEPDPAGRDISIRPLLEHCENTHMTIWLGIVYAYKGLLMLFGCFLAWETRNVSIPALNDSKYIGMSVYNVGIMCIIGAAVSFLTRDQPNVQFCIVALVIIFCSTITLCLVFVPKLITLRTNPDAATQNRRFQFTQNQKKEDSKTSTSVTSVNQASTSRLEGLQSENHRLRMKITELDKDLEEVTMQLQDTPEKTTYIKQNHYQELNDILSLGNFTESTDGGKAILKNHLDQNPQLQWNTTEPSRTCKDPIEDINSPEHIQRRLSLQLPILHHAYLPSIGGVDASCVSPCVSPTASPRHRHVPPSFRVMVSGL

The assay has as its target Gamma-aminobutyric acid type B receptor subunit 1/2 (UniProt O88871+Q9Z0U4). The assay can be described thus: Binding Assay. Here is the method: The samples were incubated at room temperature for 60 minutes on a shaker. The incubation was stopped by rapid vacuum filtration over glass-fiber filter plates (UniFilter-96 well, GF/B membrane plates, PerkinElmer) using a 96-well plate harvester (TOMTEK Harvester). The UniFilter plate was washed five times with ice-cold wash buffer (50 mM Tris-HCl buffer, pH 7.7, 10 mM MgCl2, and 100 mM NaCl. After filtration the plate was dried for 90 minutes at 55° C. The plates were closed on the bottom with black sealing membranes, and liquid scintillation cocktail (35 μL, Betaplate Scint, PerkinElmer) was added to each well. After sealing the top of the plate, an additional incubation step of 90 minutes at room temperature followed before measuring the plate. The amount of membrane-bound [35S]GTPgS was measured using a 96-well plate reader (Microbeta , PerkinElmer).
`COc1c(NC(C)=O)cccc1-c1nn(C(C)c2ccc(Cl)cc2)c(=O)c2c(C)noc12` (stereo not drawn) [US10556914, Example 33]: the EC50 (usually the concentration that produces a half-maximal response) is > 10 µM.

As for `COc1ccc(OC)c(-c2nn(Cc3ccc(Cl)cc3)c(=O)c3c(C(C)C)noc23)c1` [US10556914, Example 13], the EC50 is 3.54 µM.

On to `CC(=O)Nc1cccc(-c2nn(Cc3ccc(Cl)cc3)c(=O)c3c(C(C)C)noc23)c1` [US10556914, Example 96], for which it took 2.59 µM to reach a half-maximal effect (EC50). The EC50 values of the last two compounds are within 1.5-fold of each other.
